The source of these data is doi:10.1101/2022.09.01.506269v1 (biorxiv, 2022).

One experiment concerns the target T1, choline transporter (Homo sapiens, UniProt Q9GZV3).
T1 sequence (Q9GZV3 1-580): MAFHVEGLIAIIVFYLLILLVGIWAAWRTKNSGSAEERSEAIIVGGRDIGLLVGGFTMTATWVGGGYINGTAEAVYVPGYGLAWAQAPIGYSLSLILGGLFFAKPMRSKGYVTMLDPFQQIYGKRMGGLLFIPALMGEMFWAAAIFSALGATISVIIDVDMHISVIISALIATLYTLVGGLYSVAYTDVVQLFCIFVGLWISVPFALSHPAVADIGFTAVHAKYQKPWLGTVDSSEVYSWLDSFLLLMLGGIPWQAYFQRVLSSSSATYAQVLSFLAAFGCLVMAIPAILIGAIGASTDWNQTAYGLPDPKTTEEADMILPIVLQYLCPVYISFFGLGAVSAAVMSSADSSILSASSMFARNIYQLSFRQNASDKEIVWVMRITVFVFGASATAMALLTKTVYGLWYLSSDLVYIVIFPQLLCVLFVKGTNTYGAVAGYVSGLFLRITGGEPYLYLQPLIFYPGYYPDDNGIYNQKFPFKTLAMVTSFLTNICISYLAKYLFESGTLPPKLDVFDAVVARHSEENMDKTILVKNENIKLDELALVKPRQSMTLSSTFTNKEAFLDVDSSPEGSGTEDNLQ
The experiment can be described thus: biochemical.

The target of another experiment is D1 (Homo sapiens, UniProt P21728). Kind of experiment: biochemical.
Chain of D1 (P21728 whole entry): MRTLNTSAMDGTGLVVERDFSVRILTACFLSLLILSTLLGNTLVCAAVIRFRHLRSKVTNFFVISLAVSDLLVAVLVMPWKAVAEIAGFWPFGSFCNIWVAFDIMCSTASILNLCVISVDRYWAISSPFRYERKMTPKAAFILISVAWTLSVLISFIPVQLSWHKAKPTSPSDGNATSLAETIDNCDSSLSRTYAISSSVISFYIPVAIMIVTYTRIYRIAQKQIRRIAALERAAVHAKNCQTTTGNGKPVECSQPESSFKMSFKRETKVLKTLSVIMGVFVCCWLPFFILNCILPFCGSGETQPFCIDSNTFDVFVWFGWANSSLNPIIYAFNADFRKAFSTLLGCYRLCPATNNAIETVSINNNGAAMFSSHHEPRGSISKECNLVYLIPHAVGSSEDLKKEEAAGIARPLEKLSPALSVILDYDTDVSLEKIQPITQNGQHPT
The target in a further experiment is CYP3A4 (Homo sapiens, UniProt P08684). Kind of experiment: CYP3A4 inhibition, method not given. It counts as biochemical.
Chain of CYP3A4 (P08684 2-503): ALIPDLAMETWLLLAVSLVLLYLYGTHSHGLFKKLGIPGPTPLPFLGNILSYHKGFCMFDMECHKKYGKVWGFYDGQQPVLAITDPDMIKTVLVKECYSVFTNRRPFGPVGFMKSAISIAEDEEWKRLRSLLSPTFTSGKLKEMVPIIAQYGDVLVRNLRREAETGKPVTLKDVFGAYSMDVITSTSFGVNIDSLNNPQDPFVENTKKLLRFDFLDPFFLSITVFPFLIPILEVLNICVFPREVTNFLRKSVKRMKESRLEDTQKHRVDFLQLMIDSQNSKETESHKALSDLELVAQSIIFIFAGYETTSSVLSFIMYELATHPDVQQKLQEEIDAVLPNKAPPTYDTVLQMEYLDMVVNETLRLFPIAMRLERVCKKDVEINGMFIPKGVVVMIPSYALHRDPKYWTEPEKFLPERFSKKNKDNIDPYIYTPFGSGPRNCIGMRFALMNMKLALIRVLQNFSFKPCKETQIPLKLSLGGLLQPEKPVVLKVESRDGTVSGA
[1] abbreviates: read-out: XEN601 % inhibition at 1 µM.
Setting [2] is: read-out: XEN602 % inhibition at 1 µM.

Read-outs that look alike come from different tables or passages of the source.

A word on the inhibition: it is the relative decrease from the control value, in per cent. A word on the IC50: it is the concentration at which inhibition is half-maximal. With `N=C(N)SCc1ccccc1Oc1ccc(-c2ccc(Oc3ccccc3CSC(=N)N)c(CSC(=N)N)c2)cc1CSC(=N)N` [compound 5, XEN601], the inhibition at 1 µM came to 62% at choline transporter (setting [1]) and 69% on D1 (setting [1]). For the same compound, the IC50 against CYP3A4 was below 1 µM.

With `N=C(N)SCc1cc(F)ccc1Oc1ccc(-c2ccc(Oc3ccc(CCCN4CCNCC4)cc3CSC(=N)N)c(CSC(=N)N)c2)cc1CSC(=N)N` [compound 6, XEN602], the inhibition at 1 µM at choline transporter (setting [2]) is 52%; on D1 (setting [2]), 59%.
